We go through 17 compounds from patent US20200147039A1, “COMPOUNDS USEFUL IN INHIBITING HUMAN TREFOIL FACTOR 3” (NATIONAL UNIVERSITY OF SINGAPORE, priority 2017, published 2020).

This assay has as its system MCF-7. Briefly: AlamarBlue cell viability assay, MCF7. The following applies: Homo sapiens, MCF7, MCF-7, AlamarBlue cell viability (Table 8). It is filed as cell-based, human. An excerpt: (A) Inhibitory concentration 50% (IC50) values for compound 43 in the MC cell lines are tabulated, using an AlamarBlue™ cell viability assay as previously described in Pandey V et al., Breast Cancer Res. 2014; 16(5):429. (B) Measured dose-dependent manner effect of compound 43 on the viability of MC cells (left-side, TFF3-high and right, TFF3-low) using AlamarBlue™ viability assay as previously described (ibid). (C) Apoptotic cell death of mammary carcinoma cell lines measured after treatment with 10 μM compound 43 using flow cytometry analysis at 24 hour as described previously in Keerthy H K et al., PloS one. 2014; 9(9):e107118. Annexin V-FITC staining is indicated on the X-axis and PI staining on the Y-axis. […] Acquisition of Annexin V and PI data were represented as percentage (%) in each quadrant. Note: CM, conditioned media; MCF10A and MCF12A, non-transformed immortalized-mammary epithelial cell line. Points are mean of triplicate experiments; bars, ±SD. Statistical significance was assessed by using an unpaired two-tailed Student's t test (P<0.05 was considered as significant) using GraphPad Prism5. Columns are mean of triplicate experiments; bars, ±SD. **P<0.001, *P<0.05.
The human immortalized mammary epithelial cell lines, MCF10A, and MCF12A; and immortalized hepatocellular epithelial cell line, LO2 were obtained from the American Type Culture Collection (ATCC, Rockville, Md.) and were cultured as per ATCC propagation instructions. MC cell lines, MCF7, T47D, BT474, BT20, MDA-MB-361, MDA-MB-436, MDA-MB-468, and MDA-MB-231; endometrial carcinoma cell lines, Ishikawa, ECC1, RL95-2 and AN3; hepatocellular carcinoma cell lines, Hep3B, H2P, and H2M; colon carcinoma cell lines, DLD-1, and Caco-2; and prostate carcinoma cell lines, PC3, LNCaP, and DU145 were obtained from the American Type Culture Collection (ATCC, Rockville, Md.). Pancreatic carcinoma cell lines, AsPC-1 and BxPC-3; Lung carcinoma cell lines, HCC-827, NCI-H1975, HCC-4006, PC-14, and NCI-H1299; and Thyroid carcinoma cell lines HTH83, CAL62, T238, and OGK-M were obtained from Prof. H. Phillip Koeffler's laboratory at The Cancer Science Institute of Singapore, National University of Singapore (NUS). Gastric carcinoma cell lines, AGS, MKN-28, MKN-45, and A2-528 were obtained from Prof. Yoshiaki Ito's laboratory at The Cancer Science Institute of Singapore, NUS. All cell lines were cultured as per ATCC propagation instructions.
The above synthesised compounds were initially evaluated against a range of carcinoma cells using an AlamarBlue™ cell viability assay (using the protocol discussed above). The tested compounds were generally efficacious at reducing the viability of various carcinoma cells compared to vehicle (DMSO) treated cells. Table 8 provides selected IC50 data for certain of the compounds synthesised herein against MCF-7.
In table 9 IC50 values of compound 43 compound library in several cancer cell lines are tabulated, using an AlamarBlue® cell viability assay as previously described in Pandey V et al., Breast Cancer Res. 2014; 16(5):429. Statistical analysis was assessed by using GraphPad Prism5. Note: NV, no value.

Broadly, the IC50 is the midpoint of a concentration-inhibition curve. A high value points to a need for much substance.

For the compound `Cc1cc(-c2ccc(C3C(C#N)=C(N)Oc4c3c(=O)oc3ccc(F)cc43)c(F)c2)cnc1Cl` (centres unmarked) [Compound 170], half-maximal inhibition (IC50) required 27.3 µM.
`CC(=O)c1ccc(-c2ccc(C3C(C#N)=C(N)Oc4c3c(=O)oc3ccc(F)cc43)cc2)s1` (centres unmarked) [Compound 158] returned an IC50 of 95.2 µM.
The compound `COc1ccc2c3c(c(=O)oc2c1)C(c1ccc(-c2ccncc2)cc1)C(C#N)=C(N)O3` (centres unmarked) [Compound 146] had an IC50 of 7.04 µM.
Regarding `COc1ccc(S(=O)(=O)NC2=C(C#N)C(c3ccc(OC)c(-c4cnc(F)c(C)c4)c3)c3c(c4ccccc4oc3=O)O2)cc1` (centres unmarked) [Compound 111], the IC50 amounted to 39.3 µM.
In turn, `COc1ccc(CC(=O)NC2=C(C#N)C(c3ccc(-c4cnc(F)c(C)c4)cc3)c3c(c4ccccc4oc3=O)O2)cc1OC` (centres unmarked) [Compound 99] had an IC50 of 33.4 µM.
The compound `N#CC1=C(N)Oc2c(c(=O)oc3ccc(F)cc23)C1c1ccc(-c2ccncc2)cc1` (centres unmarked) [Compound 145] yielded an IC50 of 2.81 µM.
The compound `N#CC1=C(N)Oc2c(c(=O)oc3ccc(F)cc23)C1c1ccc(-c2cccnc2)cc1F` (centres unmarked) [Compound 166] displayed an IC50 of 53.8 µM.
For `Cc1cc(-c2ccc(C3C(C#N)=C(NS(=O)(=O)c4ccccc4)Oc4c3c(=O)oc3ccccc43)cc2)cnc1F` (centres unmarked) [Compound 107] the value was 19.5 µM; for `N#CC1=C(N)Oc2c(c(=O)oc3ccccc23)C1c1ccc(-c2ccc(C=O)o2)cc1F` (centres unmarked) [Compound 136], 1.67 µM; for `N#CC1=C(N)Oc2c(c(=O)oc3ccccc23)C1c1ccc(-c2ccccc2)cc1` (centres unmarked) [Compound 1], 22.6 µM.
As for `Cc1cc(-c2ccc(C3C(C#N)=C(NC(=O)c4cccn4C)Oc4c3c(=O)oc3ccccc43)cc2)cnc1F` (centres unmarked) [Compound 101], the figure is 40.4 µM; as for `Cc1cc(-c2ccc(C3C(C#N)=C(NC(=O)Cc4cccc(Cl)c4)Oc4c3c(=O)oc3ccccc43)cc2)cnc1F` (centres unmarked) [Compound 98], 58.3 µM.
On to `COc1ccc(C2C(C#N)=C(N)Oc3c2c(=O)oc2ccccc32)cc1-c1ccccc1C` (centres unmarked) [Compound 55], for which the IC50 turned out to be 18.6 µM.
Compound `N#CC1=C(N)Oc2c(c(=O)oc3ccc(F)cc23)C1c1ccc(-c2cncnc2)cc1` (centres unmarked) [Compound 160] yielded an IC50 of 253 µM.
As for `N#CC1=C(N)Oc2c(c(=O)oc3ccccc23)C1c1ccc(-c2cccc3ccccc23)cc1` (centres unmarked) [Compound 125], the IC50 came out at 8.23 µM.
As to `N#CC1=C(N)Oc2c(c(=O)oc3ccccc23)C1c1ccc(-c2cccnc2)cc1` (centres unmarked) [Compound 31], half-maximal inhibition (IC50) required 5.21 µM.
Turning to `Cc1cc(-c2ccc(C3C(C#N)=C(NC(=O)c4cc(Cl)ccc4Cl)Oc4c3c(=O)oc3ccccc43)cc2)cnc1F` (centres unmarked) [Compound 100], 177 µM corresponded to half-maximal inhibition (IC50).
